Data as given in patent US5616320A, “Use of antibiotics 10381b to promote growth” (The Upjohn Company, priority 1994, dated 1997).

Legend:
[1] = test system: Streptococcus pneumoniae; test: Antibacterial spectrum, disc zone of inhibition; assay type: cell-based; design: key: hazy; vl: very light; trace; details: UC 9207; 1/4 inch discs, 20 μl
Method: (§1) ^1 Assays marked * used 1/4 inch (6.35 mm) discs and 20 μl
(§2) All other assays used 1/2 inch (12.7 mm) discs and 80 μl samples.
(§3) h = hazy; vl = very light; tr = trace. Assay procedures are described in
(§4) Hanka, L. J., M. R. Burch and W. T. Sokolski. Psicofuranine. IV.
(§5) Microbiological assay. Antibiot. and Chemoth. 9:432-435 (1959).

[2] = test system: Neisseria gonorrhoeae; test: Antibacterial spectrum, disc zone of inhibition; assay type: cell-based; design: key: hazy; vl: very light; trace; details: UC 3065; 1/4 inch discs, 20 μl
Method: as §1, §2, §3, §4, §5

[3] = test system: Staphylococcus epidermidis; test: Antibacterial spectrum, disc zone of inhibition; assay type: cell-based; design: key: hazy; vl: very light; trace; details: UC 719; 1/4 inch discs, 20 μl
Method: as §1, §2, §3, §4, §5

[4] = Solubility; assay type: physicochemical
[5] = test system: Gram-positive bacteria, yeasts, and fungi; test: In vitro antimicrobial activity (statement in words); assay type: cell-based
[6] = test system: yeasts and fungi; test: Growth inhibition (statement in words); assay type: cell-based
[7] = test system: Bordetella bronchiseptica; test: Antibacterial spectrum, disc zone of inhibition; assay type: cell-based; details: UC 6481; 1/2 inch discs, 80 μl
Method: as §1, §2, §3, §4, §5

[8] = test system: Micrococcus luteus; test: Antibacterial spectrum, disc zone of inhibition; assay type: cell-based; details: 1/2 inch discs, 80 μl
Method: as §1, §2, §3, §4, §5

[9] = test system: Proteus vulgaris; test: Antibacterial spectrum, disc zone of inhibition; assay type: cell-based; details: UC 93; 1/2 inch discs, 80 μl
Method: as §1, §2, §3, §4, §5

[10] = test system: Bacillus subtilis; test: Antibacterial spectrum, disc zone of inhibition; assay type: cell-based; details: UC 564; 1/2 inch discs, 80 μl
Method: as §1, §2, §3, §4, §5

[11] = test system: Hemophilus influenzae; test: Antibacterial spectrum, disc zone of inhibition; assay type: cell-based; details: UC 6483; 1/4 inch discs, 20 μl
Method: as §1, §2, §3, §4, §5

[12] = test system: Candida albicans; test: Antibacterial spectrum, disc zone of inhibition; assay type: cell-based; details: UC 1392
Method: as §1, §2, §3, §4, §5

[13] = test system: Mycobacterium avium; test: Antibacterial spectrum, disc zone of inhibition; assay type: cell-based; details: UC 159; 1/2 inch discs, 80 μl
Method: as §1, §2, §3, §4, §5

[14] = test system: Pseudomonas aeruginosa; test: Antibacterial spectrum, disc zone of inhibition; assay type: cell-based; details: UC 95; 1/2 inch discs, 80 μl
Method: as §1, §2, §3, §4, §5

[15] = test system: Saccharomyces cerevisiae; test: Antibacterial spectrum, disc zone of inhibition; assay type: cell-based; details: UC 1342
Method: as §1, §2, §3, §4, §5

[16] = test system: Bacteroides fragilis; test: Antibacterial spectrum, disc zone of inhibition; assay type: cell-based; details: UC 6513; 1/2 inch discs, 80 μl
Method: as §1, §2, §3, §4, §5

[17] = test system: Clostridium perfrigens; test: Antibacterial spectrum, disc zone of inhibition; assay type: cell-based; details: UC 6509; 1/2 inch discs, 80 μl
Method: as §1, §2, §3, §4, §5

[18] = test system: Streptococcus pyogenes; test: Antibacterial spectrum, disc zone of inhibition; assay type: cell-based; details: UC 152
Method: as §1, §2, §3, §4, §5

[19] = test system: Serratia marcescens; test: Antibacterial spectrum, disc zone of inhibition; assay type: cell-based; details: UC 6888; 1/4 inch discs, 20 μl
Method: as §1, §2, §3, §4, §5

[20] = test system: Salmonella schottmuelleri; test: Antibacterial spectrum, disc zone of inhibition; assay type: cell-based; details: UC 126; 1/2 inch discs, 80 μl
Method: as §1, §2, §3, §4, §5

[21] = test system: Penicillium oxalicum; test: Antibacterial spectrum, disc zone of inhibition; assay type: cell-based; details: UC 1268
Method: as §1, §2, §3, §4, §5

[22] = test system: Pasteurella hemolytica; test: Antibacterial spectrum, disc zone of inhibition; assay type: cell-based; details: UC 6531; 1/2 inch discs, 80 μl
Method: as §1, §2, §3, §4, §5

[23] = test system: Escherichia coli; test: Antibacterial spectrum, disc zone of inhibition; assay type: cell-based; details: UC 51; 1/2 inch discs, 80 μl
Method: as §1, §2, §3, §4, §5

[24] = test system: Staphylococcus aureus; test: Antibacterial spectrum, disc zone of inhibition; assay type: cell-based
Method: as §1, §2, §3, §4, §5

[25] = test system: Rhodopseudomonas sphaeroides; test: Antibacterial spectrum, disc zone of inhibition; assay type: cell-based; details: UC 3238; 1/2 inch discs, 80 μl
Method: as §1, §2, §3, §4, §5

[26] = test system: Streptococcus faecalis; test: Antibacterial spectrum, disc zone of inhibition; assay type: cell-based
Method: as §1, §2, §3, §4, §5

[27] = test system: Klebsiella pneumoniae; test: Antibacterial spectrum, disc zone of inhibition; assay type: cell-based; details: UC 57; 1/2 inch discs, 80 μl
Method: as §1, §2, §3, §4, §5

[28] = Toxicity; design: species or system mammals

In the case of `CC(CCN(C)C(=N)N)C(N)C(=O)NC1C=CC(n2ccc(N)nc2=O)OC1C(=O)O` (centres unmarked) [Antibiotic 10381a1], the “Zone of Inhibition” value [1] is reported as “tr”, the “Zone of Inhibition” value [2] is reported as “tr” and the “Zone of Inhibition” value [3] is reported as “tr”. For the same compound, the Solubility ([4]; acetone, ethyl acetate, ether and chlorinated or saturated hydrocarbon solvents) was “Insoluble”, the Solubility ([4]; water and lower alcohols) was “Soluble” and the “antimicrobial activity” value [5] was “broad spectrum antibiotic properties”. The growth inhibitory effect [6] was “especially strong growth inhibitory effect”, the “Zone of Inhibition” value [7] was 0 mm and the “Zone of Inhibition” value ([8]; UC 130) was 32 mm. For the same compound, the “Zone of Inhibition” value ([8]; UC 3383) was 32 mm, the “Zone of Inhibition” value [9] was 0 mm and the “Zone of Inhibition” value [10] was 0 mm. The “Zone of Inhibition” value [11] was 10 mm, the “activity” value [12] was “active” and the “Zone of Inhibition” value ([12]; 1/4 inch discs, 20 μl) was 12 mm. For the same compound, the “Zone of Inhibition” value [13] was 17 mm, the “Zone of Inhibition” value [14] was 0 mm and the “activity” value [15] was “active”. The “Zone of Inhibition” value ([15]; 1/2 inch discs, 80 μl) was 31 mm, the “Zone of Inhibition” value [16] was 21 mm and the “Zone of Inhibition” value [17] was 18 mm. For the same compound, the “activity” value [18] was “active”, the “Zone of Inhibition” value ([18]; 1/2 inch discs, 80 μl) was 25 mm and the “Zone of Inhibition” value [19] was 0 mm. For the same compound, the “Zone of Inhibition” value [20] was 0 mm, the “activity” value [21] was “active” and the “Zone of Inhibition” value ([21]; 1/2 inch discs, 80 μl) was 36 mm. The “Zone of Inhibition” value [22] was 0 mm, the “Zone of Inhibition” value [23] was 0 mm and the “Zone of Inhibition” value ([24]; UC 80, 1/2 inch discs, 80 μl) was 16 h. For the same compound, the “Zone of Inhibition” value ([24]; UC 3665, 1/2 inch discs, 80 μl) was 0 mm, the “Zone of Inhibition” value ([24]; UC 6685, 1/4 inch discs, 20 μl) was 0 mm and the “Zone of Inhibition” value [25] was 33 mm. The “Zone of Inhibition” value ([26]; UC 221, 1/4 inch discs, 20 μl) was 10 vl, the “activity” value ([26]; UC 694) was “active” and the “Zone of Inhibition” value [27] was 0 mm. For the same compound, the “toxicity relative to blasticidin” value ([28]; compared with blasticidin) was “less toxicity than blasticidin” and the toxicity ([28]; in mammals / versus prior art antibiotics) was “greatly reduced toxicity”.
